Test results taken from the NIST ThermoML archive (doi:10.1016/j.jct.2013.05.009).

Experiment: xn = mol fraction of the nth substance listed
Conditions: 101 kPa, Liquid; for mass density: Vibrating tube method; for speed of sound: fixed-path interferometer

CC(C)CC(C)(C)C [2,2,4-trimethylpentane] + CCCCO
Conditions | mass density, 298.15 K [kg/m3] | mass density, 308.15 K [kg/m3] | mass density, 318.15 K [kg/m3] | mass density, 328.15 K [kg/m3] | speed of sound, 298.15 K [m/s] | speed of sound, 308.15 K [m/s] | speed of sound, 318.15 K [m/s] | speed of sound, 328.15 K [m/s]
x1 = 0.03101 | 799.41 | 791.7 | 783.95 | 776.09 | 1229.7 | 1195.8 | 1162.1 | 1128.6
x1 = 0.07555 | 790.82 | 783.03 | 775.22 | 767.29 | 1216 | 1181.3 | 1146.9 | 1112.6
x1 = 0.1426 | 778.75 | 770.87 | 762.95 | 754.91 | 1196.8 | 1161.1 | 1125.6 | 1090.3
x1 = 0.2049 | 768.51 | 760.53 | 752.52 | 744.39 | 1180.8 | 1144.2 | 1107.8 | 1071.7
x1 = 0.2621 | 759.76 | 751.67 | 743.61 | 735.41 | 1167.3 | 1130 | 1092.5 | 1056.1
x1 = 0.3176 | 751.87 | 743.75 | 735.6 | 727.34 | 1155.5 | 1117.5 | 1079.8 | 1042.5
x1 = 0.3932 | 741.94 | 733.74 | 725.51 | 717.19 | 1141.1 | 1102.3 | 1063.9 | 1025.9
x1 = 0.4553 | 734.44 | 726.18 | 717.92 | 709.56 | 1130.7 | 1091.4 | 1052.6 | 1014.1
x1 = 0.5458 | 724.43 | 716.13 | 707.81 | 699.42 | 1117.4 | 1077.5 | 1038.1 | 999.2
x1 = 0.6067 | 718.27 | 709.93 | 701.6 | 693.2 | 1109.8 | 1069.5 | 1029.7 | 990.4
x1 = 0.6787 | 711.51 | 703.15 | 694.8 | 686.39 | 1101.9 | 1061.3 | 1021.1 | 981.6
x1 = 0.742 | 706.01 | 697.65 | 689.3 | 680.9 | 1095.9 | 1055.1 | 1014.7 | 974.8
x1 = 0.8095 | 700.58 | 692.21 | 683.87 | 675.5 | 1090.6 | 1049.5 | 1008.8 | 968.8
x1 = 0.8683 | 696.2 | 687.84 | 679.5 | 671.13 | 1086.7 | 1045.4 | 1004.6 | 964.3
x1 = 0.9078 | 693.42 | 685.07 | 676.75 | 668.4 | 1084.5 | 1043.1 | 1002.2 | 961.8
x1 = 0.9422 | 691.1 | 682.76 | 674.47 | 666.16 | 1082.9 | 1041.5 | 1000.6 | 960.2
x1 = 0.9619 | 689.83 | 681.51 | 673.25 | 664.98 | 1082.3 | 1040.7 | 1000 | 959.7
x1 = 0.981 | 688.66 | 680.37 | 672.16 | 663.97 | 1082.1 | 1040.9 | 1000.1 | 959.7
x1 = 1 | 687.68 | 679.45 | 671.3 | 663.17 | 1082.7 | 1041.1 | 1000.1 | 959.4

CCCCO [butan-1-ol] + Cc1ccccc1
Conditions | mass density, 298.15 K [kg/m3] | mass density, 308.15 K [kg/m3] | mass density, 318.15 K [kg/m3] | mass density, 328.15 K [kg/m3] | speed of sound, 298.15 K [m/s] | speed of sound, 308.15 K [m/s] | speed of sound, 318.15 K [m/s] | speed of sound, 328.15 K [m/s]
x2 = 0 | 805.71 | 798.05 | 790.36 | 782.56 | 1240 | 1206.6 | 1173.4 | 1140.4
x2 = 0.02621 | 807.5 | 799.76 | 791.98 | 784.09 | 1241.1 | 1207.3 | 1173.8 | 1140.4
x2 = 0.06979 | 810.42 | 802.54 | 794.62 | 786.6 | 1242.9 | 1208.6 | 1174.5 | 1140.6
x2 = 0.1334 | 814.51 | 806.45 | 798.34 | 790.12 | 1245.4 | 1210.3 | 1175.4 | 1140.8
x2 = 0.1909 | 818.08 | 809.86 | 801.59 | 793.21 | 1247.6 | 1211.8 | 1176.3 | 1141
x2 = 0.2606 | 822.26 | 813.87 | 805.42 | 796.86 | 1250.1 | 1213.6 | 1177.4 | 1141.5
x2 = 0.3391 | 826.8 | 818.22 | 809.59 | 800.85 | 1252.9 | 1215.6 | 1178.6 | 1142
x2 = 0.4066 | 830.59 | 821.86 | 813.1 | 804.22 | 1255.4 | 1217.5 | 1180 | 1142.8
x2 = 0.473 | 834.2 | 825.36 | 816.47 | 807.48 | 1258 | 1219.6 | 1181.6 | 1144.1
x2 = 0.5406 | 837.84 | 828.87 | 819.88 | 810.78 | 1261 | 1222 | 1183.7 | 1145.7
x2 = 0.6007 | 841.01 | 831.96 | 822.88 | 813.7 | 1263.9 | 1224.6 | 1185.9 | 1147.6
x2 = 0.6711 | 844.68 | 835.54 | 826.37 | 817.12 | 1267.8 | 1228.2 | 1189.1 | 1150.5
x2 = 0.7376 | 848.14 | 838.93 | 829.68 | 820.37 | 1272.3 | 1232.3 | 1192.8 | 1154
x2 = 0.7967 | 851.2 | 841.92 | 832.63 | 823.27 | 1277 | 1236.8 | 1197.1 | 1158
x2 = 0.8691 | 854.94 | 845.61 | 836.27 | 826.88 | 1284.3 | 1243.8 | 1203.8 | 1164.4
x2 = 0.9327 | 858.35 | 848.98 | 839.62 | 830.24 | 1293.6 | 1252.7 | 1212.2 | 1171.9
x2 = 0.9649 | 860.1 | 850.75 | 841.43 | 832.09 | 1299.9 | 1258.4 | 1217 | 1175.9
